According to patent US12458630B2, “Combination therapy for cancer” (The Regents of the University of California, priority 2020, dated 2025):

Tested on: KC6141 mouse PDAC cells
Assay: Cell viability assay (CCK-8)
Type: cell-based
Settings: 3 days; for cell viability vs vehicle: WT, Ikkα-KD, Nhe1-KD, Ikkα-KD;Nhe1-KD KC6141 cells
Procedure: Extracellular Matrix (ECM) Preparation. Skin fibroblasts were seeded on 6/12/96-well plates. One day after plating, cells were switched into DMEM (with pyruvate) with 10% dialysed FBS supplemented with or without 500 μM ^3H-proline and 100 μM Vitamin C. Cells were cultured for 6 days with media renewal every 24 h. After six days, skin fibroblasts were removed by washing in 1 ml or 500 μl or 100 μl per well PBS with 0.5% (v/v) Triton X-100 and 20 mM NH4OH. ECM was washed five times with PBS before plating KC6141 cells. The following day, KC6141 cells were switched into the indicated medium for 24 or 72 hrs.
Cell viability assay. Cell viability was determined with Cell Counting Kit-8 assay (CCK-8 assay kit, Glpbio). Cells were plated in 96-well plates at a density of 3000 cells (MIA PaCa-2) or 1500 cells (KC6141) per well and incubated overnight prior to treatment. EIPA (10 μM), MRT68921 (600 nM) or erlotinib (2 μM, Sigma) were added to the wells for 72 and 96 hrs. Next, 10 μL of CCK-8 was added to each well. The optical density was read at 450 nm using a microplate reader (FilterMax F5, Molecular Devices, USA) at day 0, 1, 2, 3, and 4. For glutamine-deprivation assays, cells in 96-well plates were rinsed briefly in PBS and incubated in the 0.2 mM glutamine. Glutamine-free DMEM medium was supplemented with 0.2 mM glutamine in the presence of 10% dialysed FBS and 25 mM HEPES. For some conditions, the medium was supplemented with a final concentration of 2% BSA (Fraction V, fatty-acid-, nuclease and protease-free, Calbiochem). For all experiments, media were replaced every 24 hrs. Viable cell counts were obtained using CCK-8 assay described as above.
In some embodiments, cells were plated in 96-well plates coated with or without ECM at a density of 3000 cells (MIA PaCa-2, 1444, 1305, COLO 357/FG) or 1500 cells (KC6141) per well and incubated overnight prior to treatment. EIPA (10.5 μM), IPI549 (600 nM), MBQ-167 (500 nM), MRT68921 (600 nM) or erlotinib (2 μM, Sigma), ML385 (10 μM, Sigma), HCQ (10 μM or 80 μM) or their combinations were added to the wells for 24, 72 or 96 hrs. Next, 10 μL of CCK-8 was added to each well. The optical density was read at 450 nm using a microplate reader (FilterMax F5, Molecular Devices, USA) at day 0, 1, 2, 3, and 4. For glutamine-deprivation assays, cells in 96-well plates were rinsed briefly in PBS and incubated in the 0.2 mM glutamine. Glutamine-free DMEM medium was supplemented with 0.2 mM glutamine in the presence of 10% dialyzed FBS and 25 mM HEPES. For glucose-deprivation assays, cells in 96-well plates were rinsed briefly in PBS and incubated in the 0.5 mM glucose. Glucose-free DMEM medium was supplemented with 0.5 mM glucose in the presence of 10% dialyzed FBS and 25 mM HEPES. For some conditions, the medium was supplemented with a final concentration of 2% BSA (Fraction V, fatty-acid-, nuclease and protease-free, Calbiochem). For all experiments, media were replaced every 24 hrs. Viable cell counts were obtained using CCK-8 assay described as above.

Compound	sensitivity to single agent (cell viability) (IKKα-deficient KC6141 cells)	cell viability enhanced by extracellular matrix (ECM) (WT and IKKα KD 6141 cells on ECM, 0.5 mM glucose, EIPA, IPI549 600 nM, MBQ-167 500 nM)	cell viability vs vehicle	cell growth, single agent (IKKα KD KC6141 cells, erlotinib 2 μM, MRT68921 600 nM)
CCN(c1nc(N)c(C(=O)N=C(N)N)nc1Cl)C(C)C [EIPA, 5-(N-ethyl-N-isopropyl) amiloride]	very sensitive	suppressed	suppression of cell viability	–
CN1CCc2cc(Nc3ncc(C4CC4)c(NCCCNC(=O)C4CCC4)n3)ccc2C1 [MRT68921]	–	–	suppression of cell viability	limited
